In patent US5451688A, “Hexahydronaphthalene ester derivatives, their preparation and their therapeutic uses” (Sankyo Company, Limited, priority 1992, dated 1995) one finds ED50 and IC50 data, which are given here for eight molecules.

Like-named read-outs stand apart in the source and are kept apart here.

Test [1] deals with sterol synthesis in the liver. As to the kind of experiment: inhibitory activity against sterol synthesis in mouse liver. It counts as in vivo. To be noted: read-out: Sterol-synthesis inhibitory activity ED50. As to the method: Detemination of inhibitory activity against sterol synsthesis in mouse liver
Sterol synthesis in the liver in mice was measured by the method of Koga et al. [Biochem. Biophys.
15 μl of [^14 C]acetate was intraperitoneally injected into each mouse. One hour later, the animal was sacrificed by decapitation and the liver was excised. Sterol synthesis in the liver was measured by the incorporation of [^14 C]activity into the digitoninprecipitable sterols.
The sterol synthesis activity in a control animal receiving only a 1% Tween 80 solution was defined as 100%.

A further test concerns the target T1, HMG-CoA reductase (Rattus norvegicus, UniProt P51639).
T1 sequence (P51639 1-887): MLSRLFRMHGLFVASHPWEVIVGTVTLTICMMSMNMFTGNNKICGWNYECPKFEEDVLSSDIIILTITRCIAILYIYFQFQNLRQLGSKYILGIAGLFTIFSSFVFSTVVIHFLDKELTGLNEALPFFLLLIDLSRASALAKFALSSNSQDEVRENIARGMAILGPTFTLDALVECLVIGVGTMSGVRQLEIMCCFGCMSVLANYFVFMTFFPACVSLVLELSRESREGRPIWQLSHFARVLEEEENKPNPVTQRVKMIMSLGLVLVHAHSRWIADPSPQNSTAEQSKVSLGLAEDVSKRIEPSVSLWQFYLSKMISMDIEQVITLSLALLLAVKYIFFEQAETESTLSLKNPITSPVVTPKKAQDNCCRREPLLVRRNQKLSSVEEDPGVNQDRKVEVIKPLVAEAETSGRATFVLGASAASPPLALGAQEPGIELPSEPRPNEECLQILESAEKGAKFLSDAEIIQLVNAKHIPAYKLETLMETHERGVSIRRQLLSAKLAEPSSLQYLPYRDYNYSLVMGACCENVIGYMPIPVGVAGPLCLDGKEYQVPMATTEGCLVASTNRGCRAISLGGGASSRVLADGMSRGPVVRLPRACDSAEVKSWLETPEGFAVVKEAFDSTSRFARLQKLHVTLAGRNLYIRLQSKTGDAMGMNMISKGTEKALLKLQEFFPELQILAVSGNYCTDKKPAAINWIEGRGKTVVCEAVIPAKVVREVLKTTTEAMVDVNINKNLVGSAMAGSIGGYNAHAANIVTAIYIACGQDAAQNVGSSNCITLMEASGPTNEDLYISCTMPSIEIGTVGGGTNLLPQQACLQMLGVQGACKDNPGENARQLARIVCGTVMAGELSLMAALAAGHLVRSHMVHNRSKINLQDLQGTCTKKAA
Kind of test: HMG-CoA reductase inhibitory activity. The format is biochemical. The note with it: rat liver microsomal fraction, 0.2 mM [14C]HMG-CoA, pH 7.4, 15 minutes at 37° C. (In general: Liver microsomes are vesicles of endoplasmic reticulum, rich in cytochrome P450 enzymes.)

Setting [2] is: mice, oral, 2 hours before [14C]acetate, dose required to inhibit sterol synthesis in the liver by 50%.

A word on the ED50: it is the dose at which the effect has come halfway, by size or by number of responders. Usually IC50 stands for the concentration that inhibits the measured activity by half. The low end stands for greater potency in that assay, the high end for weaker potency in that assay. For the molecule `CCC[C@](C)(CC)C(=O)O[C@H]1C[C@H](O)C=C2C=C[C@H](C)[C@H](CC[C@@H](O)C[C@@H](O)CC(=O)O)[C@H]21` [Example 67, Sodium (3R,5R)-3,5-dihydroxy-7-[(2S,2S,6S,8S,8aR)-6-hydroxy-2-methyl-8-(2-ethyl-2-methylvaleryloxy)-1,2,6,7,8,8a-hexahydro-1-naphthyl]heptanoate], in test [1] (setting [2]), the ED50 came out at 0.048 mg/kg. On HMG-CoA reductase, the midpoint of inhibition, the IC50, lay at 0.0321 µM.

As for `C=CCC(CC)(CC)C(=O)O[C@H]1C[C@H](O)C=C2C=C[C@H](C)[C@H](CC[C@@H](O)C[C@@H](O)CC(=O)O)[C@H]21` [Example 64, Sodium (3R,5R),3,5-dihydroxy-7-[(1S,2S,6S,8S,8aR)-6-hydroxy-2-methyl-8-(2,2-diethyl-4-pentenoyloxy)-1,2,6,7,8,8a-hexahydro-1-naphthyl]heptanoate], in test [1] (setting [2]), the ED50 worked out at 0.13 mg/kg. Also, the IC50 against HMG-CoA reductase is 0.0344 µM.

As for `CCC(C)(C)C(=O)OC1CC(O)C=C2C=CC(C)C(CCC3CC(O)CC(=O)O3)C21` (stereo not shown) [Prior art cpd., reference compound], the ED50 in test [1] (setting [2]) is 0.58 mg/kg. Besides, at HMG-CoA reductase, the IC50 came out at 0.0449 µM.

For `CCC(C)(CC)C(=O)O[C@H]1C[C@H](O)C=C2C=C[C@H](C)[C@H](CC[C@@H](O)C[C@@H](O)CC(=O)O)[C@H]21` [Example 51, Sodium (3R,5R)-3,5-dihydro-7-[(1S,2S,6S,8S,8aR)-6-hydroxy-2-methyl-8-(2-ethyl-2-methylbutyryloxy)-1,2,6,7,8,8a-hexahydro-1-naphthyl]heptanoate], in test [1] (setting [2]), the ED50 was 0.063 mg/kg. Also, the IC50 on HMG-CoA reductase was 0.0338 µM.

Regarding `CCCC(CCC)C(=O)O[C@H]1C[C@H](O)C=C2C=C[C@H](C)[C@H](CC[C@@H](O)C[C@@H](O)CC(=O)[O-])[C@H]21.[Na+]`, the ED50 in test [1] (po) was 0.15 mg/kg. Besides, at HMG-CoA reductase, half-maximal inhibition (IC50) required 0.0355 µM.

As to `CCC(CC)(CC)C(=O)O[C@H]1C[C@H](O)C=C2C=C[C@H](C)[C@H](CC[C@@H](O)C[C@@H](O)CC(=O)O)[C@H]21` [Example 52, Sodium (3R,5R)-3,5-dihydroxy-7-[(1S,2S,6S,8S,8aR)-6-hydroxy-2-methyl-8-(2.2-diethylbutyryloxy)-1,2,6,7,8,8a-hexahydro-1-naphthyl]heptanoate], the ED50 in test [1] (setting [2]) was 0.054 mg/kg. On HMG-CoA reductase, this molecule displayed an IC50 of 0.0323 µM.

Regarding `CCCCC(C)(C)C(=O)O[C@H]1C[C@H](O)C=C2C=C[C@H](C)[C@H](CC[C@@H](O)C[C@@H](O)CC(=O)O)[C@H]21` [Example 69, Sodium (3R,5R)-3,5-dihydroxy-7-[(1S,2S,6S,8S,8aR)-6-hydroxy-2-methyl-8-[2,2-dimethylhexanoyloxy)-1,2.6.7,8,8a-hexahydro-1-naphthyl]heptanoate], the ED50 in test [1] (setting [2]) is 0.028 mg/kg. This molecule also registered an IC50 at HMG-CoA reductase of 0.0329 µM.

On to `C=CCC(CC)(CC=C)C(=O)O[C@H]1C[C@H](O)C=C2C=C[C@H](C)[C@H](CC[C@@H](O)C[C@@H](O)CC(=O)O)[C@H]21` [Example 65, Sodium (3R,5R)-3,5-dihydroxy-7-[(1S,2S,6S,8S,8aR)-6-hydroxy-2-methyl-8-(2-allyl-2-ethyl-4-pentenoyloxy)-1.2.6,7,8,8a-hexahydro-1-naphthyl]heptanoate], for which the ED50 in test [1] (setting [2]) turned out to be 0.19 mg/kg. In addition, the IC50 at HMG-CoA reductase was found to be 0.0366 µM.
